In patent publication US20250074910A1, “MENIN INHIBITOR AND USE THEREOF” (HITGEN INC., priority 2021, published 2025):

Columns and labels:
[1] = Pharmacokinetics test in mouse; type: in vivo, ICR mice; settings: mice, p.o. 10 mg/kg
Summary of the method: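 Fasted male ICR mice dosed with compound in saline with 1.5 eq HCl, 1 mg/kg i.v. or 10 mg/kg oral gavage (6 mice each). Plasma sampled 5 min–24 h, measured by LC-MS/MS; t½, Cmax, AUC, CL and F% by non-compartmental analysis, mean±SD.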

[2] = Stability in human liver microsomes; type: in vitro ADME; settings: Human; 0.5 mg/mL microsomal protein, 1.00 μM compound, NADPH
Method: (§1) Test Example 3: Test of Stability of Compounds in Liver Microsome
(§2) Test purpose: To determine the stability of some of the compounds of the present disclosure in mouse, dog and human liver microsomes by LC-MS/MS method.
(§3) Test materials: The test drugs were in-house prepared example compounds of the present disclosure; the positive reference compound SNDX-5613 was prepared by the method of Example 253 in patent WO2017214367; the control compound 1 was prepared by the method of Example 64 in WO2017214367; liver microsomes were purchased from CORNING.
(§4) The total volume of each incubation system was approximately 45 μL, and the medium was 100 mM phosphate buffer (PBS, pH 7.4), including liver microsomal protein at a final concentration of 0.5 mg/mL, 1.00 μM compound and 2.00 mM NADPH, and the organic phase content was <1%. Incubation was performed in a 37° C. incubator, and 135 μL of ice-cold acetonitrile was added after 0, 5, 15, 30 and 60 min of reaction to terminate the reaction. The positive control group was incubated with 1.00 μM Ketanserin, 0.5 mg/mL liver microsomal protein and 2.00 mM NADPH in a 37° C. incubator for 0, 5, 15, 30 and 60 min respectively, and then 135 μL of ice-cold acetonitrile was added to terminate the reaction. The 96-well plates were shaken at 600 rpm for 10 min and then centrifuged at 4700 rpm at 4° C. for 15 min. 80 μL of supernatant was mixed with 320 μL of pure water, and the remaining amount of the compound was detected by LC-MS/MS method. The in vitro half life (T½) and intrinsic clearance (CLint) were calculated according to the following formula:
(§5) Intrinsic clearance (Clint)=(0.693/T1/2)×(1/liver microsome concentration)×conversion factor. k is the linear regression slope of the remaining percentage of the ln compound-incubation time.

[3] = Stability in dog liver microsomes; type: in vitro ADME; settings: Dog; 0.5 mg/mL microsomal protein, 1.00 μM compound, NADPH
Method: as §1, §2, §3, §4, §5

[4] = target: hERG potassium ion channel (Homo sapiens (Human), UniProt Q12809); settings: reported value of the positive reference compound; cited from earlier work
Chain of hERG potassium ion channel (Q12809 whole entry): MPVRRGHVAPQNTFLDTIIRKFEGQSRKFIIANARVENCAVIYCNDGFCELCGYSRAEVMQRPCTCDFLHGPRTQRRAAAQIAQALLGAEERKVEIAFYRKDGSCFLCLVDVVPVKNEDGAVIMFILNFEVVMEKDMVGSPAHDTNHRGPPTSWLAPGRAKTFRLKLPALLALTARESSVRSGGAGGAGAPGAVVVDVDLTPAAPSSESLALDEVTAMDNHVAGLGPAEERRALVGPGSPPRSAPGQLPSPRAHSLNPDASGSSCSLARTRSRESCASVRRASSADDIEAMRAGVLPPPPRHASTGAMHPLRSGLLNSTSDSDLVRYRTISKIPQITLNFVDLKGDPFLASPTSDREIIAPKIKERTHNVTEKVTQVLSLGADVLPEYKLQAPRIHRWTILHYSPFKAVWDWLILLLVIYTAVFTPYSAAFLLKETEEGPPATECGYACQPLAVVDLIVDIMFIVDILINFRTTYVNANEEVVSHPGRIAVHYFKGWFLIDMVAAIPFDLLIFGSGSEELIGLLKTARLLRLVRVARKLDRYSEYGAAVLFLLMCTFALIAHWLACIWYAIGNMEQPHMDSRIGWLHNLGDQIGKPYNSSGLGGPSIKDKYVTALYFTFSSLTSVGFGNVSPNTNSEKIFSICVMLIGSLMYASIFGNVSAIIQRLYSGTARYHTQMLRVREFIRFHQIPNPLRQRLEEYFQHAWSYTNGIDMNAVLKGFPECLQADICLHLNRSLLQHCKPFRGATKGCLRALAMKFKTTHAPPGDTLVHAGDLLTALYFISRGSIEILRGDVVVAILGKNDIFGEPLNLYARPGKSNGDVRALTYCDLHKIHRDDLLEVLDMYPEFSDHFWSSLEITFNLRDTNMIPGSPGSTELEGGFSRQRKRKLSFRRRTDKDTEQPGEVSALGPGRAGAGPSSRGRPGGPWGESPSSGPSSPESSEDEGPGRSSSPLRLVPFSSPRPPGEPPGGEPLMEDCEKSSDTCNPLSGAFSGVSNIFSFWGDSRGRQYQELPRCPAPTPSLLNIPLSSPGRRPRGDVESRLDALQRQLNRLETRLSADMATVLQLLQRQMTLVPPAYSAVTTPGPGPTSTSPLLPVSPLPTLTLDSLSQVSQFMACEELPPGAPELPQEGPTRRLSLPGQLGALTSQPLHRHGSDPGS

[5] = Stability in mouse liver microsomes; type: in vitro ADME; settings: 0.5 mg/mL microsomal protein, 1.00 μM compound, NADPH
Method: as §1, §2, §3, §4, §5

AUClast [1]: 2.483 µg·h/mL
Cmax [1]: 1.296 µg/mL
T1/2 [1]: 1.53 h
F, % ([1]; 1 mg/kg for intravenous injection): 88%
Half life T1/2, human liver microsomes [2]: 0.1998 h
Half life T1/2, dog liver microsomes [3]: 1.05 h
Half life T1/2, mouse liver microsomes [5]: 1.178 h
Compound: CCN(C(=O)c1cc(F)ccc1Oc1cncnc1N1CC2(CCN(C[C@H]3CC[C@H](NS(=O)(=O)CC)CC3)CC2)C1)C(C)C [SNDX-5613, reference compound]
IC50 [4]: 5 to 15 µM
